The values that follow come from patent US20080020387A1, “BIOMARKER-OPTIMIZED ADHD TREATMENT” (priority 2006, published 2008).

The test system of data set [1] is children with ADHD. The experiment in a line: Reported side effects after single drug dose and TMS. In kind it is in vivo, human. The method, then: (§1) The study is a randomized, double-blind, crossover design comparing the effects of single doses of atomoxetine (ATX) and methylphenidate (MPH). Sixteen patients (age 8-17 years, mean age=12, ±3; 2 girls) participate. Nine have TS. Medication doses are clinically relevant: approximately 0.5 mg/kg for MPH and 1.0 mg/kg for ATX, administered as follows:
(§2) 1) subjects 20-29 kg→10 mg MPH, 20 mg ATX; 2) subjects 30-49 kg→20 mg MPH, 40 mg ATX; 3) subjects 50 kg and above→30 mg MPH, 60 mg ATX. Subjects and investigators are blind to the order of treatment throughout the study. The one-week interval between study visits is based on published pharmacokinetic data for single doses of ATX.

For data set [2], the system named is children with ADHD. The experiment in a line: Paired and single TMS of motor cortex measuring short interval cortical inhibition (SICI) before and after single drug doses. In kind it is in vivo, human. To be noted: for Cortical Inhibition (SICI), post-medication: 90 minutes later. How it is done:
Accordingly, sixteen children with ADHD, aged 8-17, are studied. Seven are homozygotes for the 10-repeat allele. Subjects are given single oral doses of 0.5 mg/kg methylphenidate and 1.0 mg/kg atomoxetine at visits separated by one week in a randomized, double-blind crossover design. Paired and single TMS are used to measure SICI before and after drug administration. Medication and genotype effects on SICI are estimated with repeated measures, mixed model regression. […] Some variation in ADHD medication-induced neurophysiological responses is explained by differences in the number of 3′-UTR, 10-repeat VNTR alleles in DAT1.
as §1, §2
Neurophysiological studies are performed as described by Gilbert et al. ((2006) Neuropsychopharmacology 31 :442-449). TMS is performed by an investigator blind to genotype and clinical ratings.
Resting and active motor threshold (RMT and AMT) are measured using the method described in Mills and Nithi ((1997) Muscle and Nerve 20:570-576). SICI and intracortical facilitation (ICF) are measured with the Abductor Pollicis Brevis (APB) at rest, according to established paradigms (Kujirai et al. (1993) J. Physiol. 471:501-519; Ziemann et al. (1997) Electroencelphalogr. Clin. Neurophysiol. 105:430-437). SICI is measured with a conditioning pulse, 1% of stimulator output below AMT (˜70% of RMT), delivered 3 msec before a suprathreshold test pulse. ICF is measured with the conditioning pulse 10 msec before the test pulse. Twenty trials at each interval and 20 unconditioned test pulses are delivered in random order. SICI and ICF are expressed as the ratios of the mean motor evoked potential (MEP) amplitudes evoked by the pulse pairs divided by the mean amplitude of the MEP from the single test pulses.
After baseline TMS testing, subjects are administered study medication, and all measurements are repeated 90 minutes later, consistent with expected peak serum drug levels. Each TMS session takes approximately 30 minutes.
Primary analysis. The primary outcome of interest for this study is ADHD-medication, genotype, and medication*genotype effects on cortical inhibition (SICI). SICI measures are subjected to a mixed model, repeated measures analysis of variance using PROC MIXED. After assuring that baselines are not different and that there are no effects of order, we then model SICI=medication+DAT genotype+medication*genotype, combining baselines. Age and ADHD severity scores are also entered into the models as potential explanatory covariates. ICF is modeled in the same manner to determine if any effects are specific to cortical inhibition.
Secondary analyses. The secondary outcome of interest is to compare ATX and MPH effects on cortical inhibition (SICI). Two repeated measure regressions are performed: 1) the baselines-combined model above, and 2) a day-of-visit, baseline-adjusted model. Genotypes are entered to estimate genotype-specific effects of ATX vs. MPH. The Tic phenotype is entered to estimate TIC*medication and TIC*ATX vs. TIC*MPH effects. In addition, using Spearman, correlations of changes in SICI and ICF are assessed for ATX and MPH, and for SICI and ADHD severity.

For data set [3], the system named is children with ADHD. To be noted: single 10 mg dose, Moll et al. (2000); cited from earlier work.
For the next data set, the system named is ADHD patients. To be noted: cited from earlier work.
[4] abbreviates: DAT1 10-repeat homozygotes, single oral dose.
Where [5] appears, read: DAT 9, 10 genotype, single oral dose, baseline-adjusted estimate.
The mark [6] stands for this setting: DAT 10, 10 genotype, single oral dose, baseline-adjusted estimate.
Setting [7] is: No Tics, single oral dose, baseline-adjusted estimate.
The mark [8] stands for this setting: Tics, single oral dose, baseline-adjusted estimate.
Where [9] appears, read: all subjects, single oral dose ~1.0 mg/kg ATX or ~0.5 mg/kg MPH, adjusted for day-of-visit pre-treatment SICI, MEP amplitude ratio.
Where [10] appears, read: heterozygotes (single 10-repeat DAT1 allele), single oral dose.
Setting [11] is: individuals with ADHD and no TS, single oral dose.
Where [12] appears, read: patients with ADHD and TS, single oral dose.

Take `COC(=O)C(c1ccccc1)C1CCCCN1` (stereo not shown) [MPH, methylphenidate]: in the data set with children with ADHD [1] (after drug/TMS), the “Severity rating of side effects” value is given as “mild, except for one child who reports a moderate headache”. The “Side effect: abdominal pain (number of reports)” value in the data set on children with ADHD [1] (after drug/TMS) was 1. For the same compound, the “Side effect: arm/other pain (number of reports)” value with children with ADHD [1] (after drug/TMS) was found to be 2. The “Side effect: headache (number of reports)” value in the data set on children with ADHD [1] (after drug/TMS) is reported as 3. Also, the “Side effect: hearing change (number of reports)” value in the data set on children with ADHD [1] (after drug/TMS) was 1. Moreover, in the data set on children with ADHD [1] (after drug/TMS), the “Side effect: numbness/tingling (number of reports)” value is 1. Also, the “Number of subjects reporting side effects” value in the data set with children with ADHD [1] (of 16 subjects, after drug/TMS) worked out at 6 subjects. Also, the “Effect of medication on SICI” value is “slight decrease in SICI” in the data set with children with ADHD [2] (setting [4]), “tend to increase (normalize) SICI” in the data set with children with ADHD [2] (setting [10]), “decrease SICI” in the data set with children with ADHD [2] (setting [11]) and “increase (normalize) SICI” in the data set with children with ADHD [2] (setting [12]). The “Cortical Inhibition (SICI), post-medication” value is given as 0.47 in the data set with children with ADHD [2] (setting [5]); 0.61 in the data set with children with ADHD [2] (setting [6]); 0.64 in the data set on children with ADHD [2] (setting [7]); 0.44 in the data set with children with ADHD [2] (setting [8]); 0.54 in the data set with children with ADHD [2] (setting [9]). Further, the “Effect on SICI” value in the data set on children with ADHD [3] was “significantly increase (normalize) SICI”. Moreover, in the data set on ADHD patients (individuals with the DAT1 10/10 genotype, e.g. Cheon et al. (2005)), the “Clinical response by DAT1 genotype” value is listed as “poorer clinical response”.

Regarding `CNCC[C@@H](Oc1ccccc1C)c1ccccc1` [ATX, atomoxetine], in the data set on children with ADHD [1] (both, human, in vivo), the “Number of subjects reporting side effects” value was determined as 4 subjects. Moreover, the “Side effect: headache (number of reports)” value with children with ADHD [1] (both, human, in vivo) is given as 3. For the same compound, the “Side effect: loss of appetite (number of reports)” value in the data set on children with ADHD [1] (both, human, in vivo) was 2. The “Side effect: nausea (number of reports)” value in the data set with children with ADHD [1] (both, human, in vivo) is 2. Moreover, in the data set with children with ADHD [1] (both, human, in vivo), the “Side effect: numbness/tingling (number of reports)” value is on record as 1. In addition, the “Side effect: scalp pain (number of reports)” value in the data set on children with ADHD [1] (both, human, in vivo) turned out to be 1. Besides, the “Side effect: stomach pain (number of reports)” value in the data set with children with ADHD [1] (both, human, in vivo) came out at 1. Moreover, the “Severity rating of side effects” value in the data set with children with ADHD [1] (in vivo) was “mild”. Also, the “Effect of medication on SICI” value in the data set with children with ADHD [2] (setting [4]) was “slight decrease in SICI”; in the data set on children with ADHD [2] (setting [10]), “tend to increase (normalize) SICI”; in the data set on children with ADHD [2] (heterozygotes (single 10-repeat DAT1 allele), single oral dose, listed as Atomoxetine), “increases (improves) SICI”; in the data set on children with ADHD [2] (setting [11]), “decrease SICI”; in the data set with children with ADHD [2] (setting [12]), “increase (normalize) SICI”. The “Cortical Inhibition (SICI), post-medication” value in the data set on children with ADHD [2] (setting [5]) is on record as 0.51; in the data set on children with ADHD [2] (setting [6]), 0.66; in the data set on children with ADHD [2] (setting [7]), 0.62; in the data set with children with ADHD [2] (setting [8]), 0.56; with children with ADHD [2] (setting [9]), 0.59. Further, the “ADHD patients who do not respond to treatment (non-response rate)” value in the data set on ADHD patients (clinical evidence, Michelson et al. (2002)) is on record as “approximately 40%”.
